{
  "source": "ChEMBL document CHEMBL1154526",
  "about": "“Novel non-active site inhibitor of Cryptosporidium hominis TS-DHFR identified by a virtual screen” (Bioorg Med Chem Lett, 2009)",
  "key": {"[1]": {"assay": "Inhibition of Cryptosporidium hominis TS-DHFR by spectroscopic assay"}, "Dihydrofolate reductase": {"target": "T1, Dihydrofolate reductase (Homo sapiens, UniProt P00374)", "T1 sequence (P00374 whole entry)": "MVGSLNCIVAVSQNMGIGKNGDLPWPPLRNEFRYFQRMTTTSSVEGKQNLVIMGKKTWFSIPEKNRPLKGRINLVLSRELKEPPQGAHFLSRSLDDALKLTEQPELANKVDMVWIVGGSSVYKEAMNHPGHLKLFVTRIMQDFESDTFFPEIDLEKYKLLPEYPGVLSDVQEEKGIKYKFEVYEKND", "assay": "Inhibition of human DHFR"}, "Thymidylate synthase": {"target": "Thymidylate synthase (Homo sapiens, UniProt P04818)", "sequence (P04818 whole entry)": "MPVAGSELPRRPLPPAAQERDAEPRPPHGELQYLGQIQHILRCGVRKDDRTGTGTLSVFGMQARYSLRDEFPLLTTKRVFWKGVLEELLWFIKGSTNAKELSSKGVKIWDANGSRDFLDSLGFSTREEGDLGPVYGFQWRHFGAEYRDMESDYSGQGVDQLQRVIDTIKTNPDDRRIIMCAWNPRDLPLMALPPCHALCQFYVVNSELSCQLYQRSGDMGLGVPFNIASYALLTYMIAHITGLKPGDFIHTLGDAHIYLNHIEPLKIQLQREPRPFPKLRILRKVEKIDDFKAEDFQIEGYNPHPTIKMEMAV", "assay": "Inhibition of human thymidylate synthase"}, "[2]": {"assay": "Binding affinity to Cryptosporidium hominis TS-DHFR by burst amplitude assay"}, "[3]": {"target": "T2, Bifunctional dihydrofolate reductase-thymidylate synthase (Toxoplasma gondii, UniProt Q07422)", "T2 sequence (Q07422 whole entry)": "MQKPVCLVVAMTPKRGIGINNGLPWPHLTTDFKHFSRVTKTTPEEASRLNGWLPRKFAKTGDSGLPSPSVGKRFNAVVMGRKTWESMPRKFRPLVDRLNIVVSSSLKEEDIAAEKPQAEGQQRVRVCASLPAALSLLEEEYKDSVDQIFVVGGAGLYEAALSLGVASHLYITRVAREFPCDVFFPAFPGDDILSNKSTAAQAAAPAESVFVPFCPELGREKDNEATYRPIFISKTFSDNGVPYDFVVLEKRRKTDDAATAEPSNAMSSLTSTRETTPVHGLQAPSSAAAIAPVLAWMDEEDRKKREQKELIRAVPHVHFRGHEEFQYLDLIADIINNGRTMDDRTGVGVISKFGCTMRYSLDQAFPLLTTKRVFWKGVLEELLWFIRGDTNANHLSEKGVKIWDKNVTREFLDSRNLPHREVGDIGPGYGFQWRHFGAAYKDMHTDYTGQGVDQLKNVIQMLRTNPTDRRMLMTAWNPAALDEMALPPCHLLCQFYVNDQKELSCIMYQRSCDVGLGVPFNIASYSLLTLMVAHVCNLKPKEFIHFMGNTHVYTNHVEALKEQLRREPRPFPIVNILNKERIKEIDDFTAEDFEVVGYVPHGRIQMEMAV", "assay": "Inhibition of Toxoplasma gondii TS-DHFR"}, "Cryptosporidium hominis [4]": {"system": "Cryptosporidium hominis", "settings": "200 uM", "description": "Activity at Cryptosporidium hominis DHFR at 200 uM using dihydrofolate substrate by steady state competition assay"}, "Cryptosporidium hominis [5]": {"system": "Cryptosporidium hominis", "settings": "200 uM", "remark": "listed apart in the source", "description": "Activity at Cryptosporidium hominis DHFR at 200 uM using NADPH substrate by steady state competition assay"}, "[6]": {"system": "T3, Dihydrofolate reductase (Cryptosporidium hominis), Q27552 [D201A]", "T3 sequence (whole entry)": "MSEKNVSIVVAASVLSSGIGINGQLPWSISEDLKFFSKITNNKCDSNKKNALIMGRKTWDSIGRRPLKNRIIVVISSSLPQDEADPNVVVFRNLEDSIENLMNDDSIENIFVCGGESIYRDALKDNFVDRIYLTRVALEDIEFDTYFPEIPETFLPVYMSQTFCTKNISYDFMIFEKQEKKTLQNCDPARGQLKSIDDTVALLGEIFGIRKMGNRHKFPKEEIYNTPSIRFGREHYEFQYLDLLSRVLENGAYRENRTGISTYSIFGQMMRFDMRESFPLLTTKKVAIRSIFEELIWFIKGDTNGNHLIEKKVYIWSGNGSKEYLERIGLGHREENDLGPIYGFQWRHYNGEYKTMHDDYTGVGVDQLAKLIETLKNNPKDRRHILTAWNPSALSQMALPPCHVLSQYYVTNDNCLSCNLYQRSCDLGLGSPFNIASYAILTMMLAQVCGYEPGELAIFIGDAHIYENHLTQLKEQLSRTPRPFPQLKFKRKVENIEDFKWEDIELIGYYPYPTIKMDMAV", "assay": "Inhibition of Cryptosporidium hominis DHFR D201A mutant", "parameters": "scale not given: the % may be the effect or the level left"}, "[7]": {"system": "T4, Dihydrofolate reductase (Cryptosporidium hominis), Q27552 [R190G]", "T4 sequence (whole entry)": "T3 sequence (whole entry) with R190G, A201D", "assay": "Inhibition of Cryptosporidium hominis DHFR R190G mutant", "parameters": "scale not given: the % may be the effect or the level left"}, "[8]": {"assay": "Inhibition of Cryptosporidium hominis 80 to 250 nM TS-DHFR by spectroscopic assay"}},
  "note": "Residue numbers refer to the chain shown, from its start.",
  "data": [
    {"smiles": "CC(=O)N[C@@H]1[C@@H](O)[C@H](O[C@@H]2O[C@H](CO)[C@@H](O)[C@H](O)[C@H]2NC(C)=O)[C@@H](CO)O[C@H]1O", "note": "[CHITODEXTRIN]", "values": [
      {"measurement": "IC50", "setting": "[1]", "result": "> 500", "unit": "µM"}
    ]},
    {"smiles": "C[C@H]1O[C@@H](O[C@H]2[C@@H](O)C[C@H](O[C@H]3[C@@H](O)C[C@H](O[C@H]4CC[C@@]5(C)[C@H](CC[C@@H]6[C@@H]5C[C@@H](O)[C@]5(C)[C@@H](C7=CC(=O)OC7)CC[C@]65O)C4)O[C@@H]3C)O[C@@H]2C)C[C@H](O)[C@@H]1O", "note": "[DIGOXIN]", "values": [
      {"measurement": "IC50", "setting": "[1]", "result": "> 500", "unit": "µM"}
    ]},
    {"smiles": "CC(=O)N1CCN(c2ccc(OCC3COC(Cn4ccnc4)(c4ccc(Cl)cc4Cl)O3)cc2)CC1", "note": "(configuration not stated) [KETOCONAZOLE]", "values": [
      {"measurement": "IC50", "setting": "[1]", "result": "> 500", "unit": "µM"}
    ]},
    {"smiles": "Cc1cc2nc3c(=O)[nH]c(=O)nc-3n(C[C@H](O)[C@H](O)[C@H](O)COP(=O)(O)O)c2cc1C", "note": "[RIBOFLAVIN 5'-PHOSPHATE]", "values": [
      {"measurement": "IC50", "setting": "Dihydrofolate reductase", "result": 325, "unit": "µM"},
      {"measurement": "IC50", "setting": "[1]", "result": 55, "unit": "µM"},
      {"measurement": "IC50", "setting": "Thymidylate synthase", "result": "> 500", "unit": "µM"},
      {"measurement": "Kd", "setting": "[2]", "result": 48, "unit": "µM"},
      {"measurement": "IC50", "setting": "[3]", "result": "> 500", "unit": "µM"},
      {"measurement": "Km", "setting": "Cryptosporidium hominis [4]", "result": 7.2, "unit": "µM"},
      {"measurement": "Vmax", "setting": "Cryptosporidium hominis [4]", "result": 1.8, "unit": "µmol/min"},
      {"measurement": "Km", "setting": "Cryptosporidium hominis [5]", "result": 3, "unit": "µM"},
      {"measurement": "Vmax", "setting": "Cryptosporidium hominis [5]", "result": 1.77, "unit": "µmol/min"},
      {"measurement": "Activity", "setting": "[6]", "result": 10, "unit": "%"},
      {"measurement": "Activity", "setting": "[7]", "result": 20, "unit": "%"},
      {"measurement": "IC50", "setting": "[8]", "result": 55, "unit": "µM"}
    ]},
    {"smiles": "COc1cccc2c1C(=O)C1=C(C2=O)C(O)C2=C(C1O)[C@@H](C[C@@H]1C[C@H](N)[C@@H](O)[C@H](C)O1)C[C@@](O)(/C(C)=N/NC(=O)c1ccccc1)C2", "note": "(some centres not stated) [RUBIDAZONE]", "values": [
      {"measurement": "IC50", "setting": "[1]", "result": "> 500", "unit": "µM"}
    ]},
    {"smiles": "COC1=C(N)C(=O)c2nc(-c3nc(C(=O)O)c(C)c(-c4ccc(OC)c(OC)c4O)c3N)ccc2C1=O", "note": "[STREPTONIGRIN]", "values": [
      {"measurement": "IC50", "setting": "[1]", "result": 80, "unit": "µM"}
    ]}
  ]
}
